Earlier results in article PMC2233745 (The Journal of General Physiology, 2001).

Test system: high Km PDE
Conditions: high Km PDE in GH3 and GH4C1 cells; ref Gautvik et al. 1982; cited from earlier work

In the case of Nc1ncnc2c1ncn2[C@@H]1O[C@@H]2COP(=O)(O)O[C@H]2[C@H]1O [cAMP], the Km is listed as 28.6 µM.
